Laboratory results reported in ChEMBL document CHEMBL1681719, “Synthesis and evaluation of 1,5-diaryl-substituted tetrazoles as novel selective cyclooxygenase-2 (COX-2) inhibitors” (Bioorg Med Chem Lett, 2011).

What was measured:
[1] = molecular target: T1, Prostaglandin G/H synthase 1 (Ovis aries, UniProt P05979); assay: Inhibition of ovine COX-1 by fluorescence assay
T1 sequence (P05979 whole entry): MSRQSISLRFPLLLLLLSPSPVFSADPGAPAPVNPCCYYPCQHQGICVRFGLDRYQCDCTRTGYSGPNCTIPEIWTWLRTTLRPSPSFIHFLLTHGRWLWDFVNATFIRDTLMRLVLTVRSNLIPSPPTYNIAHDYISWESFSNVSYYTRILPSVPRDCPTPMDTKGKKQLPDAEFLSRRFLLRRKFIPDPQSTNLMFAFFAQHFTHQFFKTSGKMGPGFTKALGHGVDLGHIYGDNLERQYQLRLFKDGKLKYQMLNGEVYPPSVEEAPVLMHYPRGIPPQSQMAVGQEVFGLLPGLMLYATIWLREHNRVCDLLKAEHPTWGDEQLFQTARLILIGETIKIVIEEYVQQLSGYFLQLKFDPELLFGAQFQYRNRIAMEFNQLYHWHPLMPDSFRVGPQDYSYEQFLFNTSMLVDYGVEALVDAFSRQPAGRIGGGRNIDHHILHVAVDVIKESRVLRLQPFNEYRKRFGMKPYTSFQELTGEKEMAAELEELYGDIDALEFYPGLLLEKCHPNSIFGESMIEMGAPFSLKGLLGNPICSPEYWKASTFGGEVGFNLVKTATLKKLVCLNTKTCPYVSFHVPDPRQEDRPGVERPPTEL

[2] = molecular target: T2, Prostaglandin G/H synthase 2 (Homo sapiens, UniProt P35354); assay: Inhibition of human recombinant COX-2 by fluorescence assay
T2 sequence (P35354 whole entry): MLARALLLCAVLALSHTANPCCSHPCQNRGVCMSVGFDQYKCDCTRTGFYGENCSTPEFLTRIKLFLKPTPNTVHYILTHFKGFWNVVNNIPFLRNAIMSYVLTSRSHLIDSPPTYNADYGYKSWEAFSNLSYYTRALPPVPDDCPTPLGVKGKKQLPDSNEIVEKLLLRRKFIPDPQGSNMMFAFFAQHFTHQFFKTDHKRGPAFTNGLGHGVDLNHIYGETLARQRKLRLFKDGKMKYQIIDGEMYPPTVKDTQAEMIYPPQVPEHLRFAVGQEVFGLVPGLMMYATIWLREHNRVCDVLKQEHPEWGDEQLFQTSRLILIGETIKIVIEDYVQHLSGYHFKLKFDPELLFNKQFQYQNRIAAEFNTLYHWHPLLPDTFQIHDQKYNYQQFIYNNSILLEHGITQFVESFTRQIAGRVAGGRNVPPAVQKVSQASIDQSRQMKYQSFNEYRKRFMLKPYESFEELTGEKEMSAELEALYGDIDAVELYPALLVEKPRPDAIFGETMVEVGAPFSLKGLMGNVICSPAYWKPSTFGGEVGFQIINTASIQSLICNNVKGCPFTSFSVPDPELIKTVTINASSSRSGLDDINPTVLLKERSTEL

[3] = Selectivity index ratio of IC50 for ovine COX-1 to IC50 for human recombinant COX-2

SMILES	IC50 [1]	IC50 [2]	Ratio IC50 [3]
Cc1ccc(-n2nnnc2-c2ccc(S(C)(=O)=O)cc2)cc1	8100 µM	45 µM	180
COc1ccc(-n2nnnc2-c2ccc(S(C)(=O)=O)cc2)cc1	420 µM	2 µM	210
CS(=O)(=O)c1ccc(-c2nnnn2-c2ccccc2)cc1	3700 µM	200 µM	18.5
CS(=O)(=O)c1ccc(-c2nnnn2-c2ccc(F)cc2)cc1	640 µM	2.7 µM	237
CS(=O)(=O)c1ccc(-c2nnnn2-c2ccc(Cl)cc2)cc1	500 µM	110 µM	4.5
